The test deals with MV-4-11 cells. Description: Gene expression microarray analysis (Affymetrix PrimeView) and GSEA. In kind it is cell-based, human. Also noted: RFU PODN (11730768_x_at) / Fold change /veh PODN (11730768_x_at) / RFU LINC00158 (11744669_a_at) / Fold change /veh LINC00158 (11744669_a_at) / RFU DUSP10 (11751237_a_at) / Fold change /veh DUSP10 (11751237_a_at) / RFU ID3 (11757404_x_at) / Fold change /veh ID3 (11757404_x_at) / RFU PLEKHG5 (11737974_s_at) / Fold change /veh PLEKHG5 (11737974_s_at) / RFU LRRC4B (11730491_at) / Fold change /veh LRRC4B (11730491_at) / RFU GIMAP4 (11747438_a_at) / Fold change /veh GIMAP4 (11747438_a_at) / RFU KRT8 (11758183_x_at) / Fold change /veh KRT8 (11758183_x_at) / RFU CNN1 (11734310_a_at) / Fold change /veh CNN1 (11734310_a_at) / RFU VPS37D (11726825_at) / Fold change /veh VPS37D (11726825_at) / RFU C10orf10 (11716522_x_at) / Fold change /veh C10orf10 (11716522_x_at) / RFU KIR2DL2 /// KIR2DL4 /// KIR2DL5A /// KIR2DL5B /// KIR2DS1 /// KIR2DS2 /// KIR2DS3 /// KIR2DS4 /// KIR3DL3 /// KIR3DL3 /// KIR3DS1 (11738374_at) / Fold change /veh KIR2DL2 /// KIR2DL4 /// KIR2DL5A /// KIR2DL5B /// KIR2DS1 /// KIR2DS2 /// KIR2DS3 /// KIR2DS4 /// KIR3DL3 /// KIR3DL3 /// KIR3DS1 (11738374_at) / RFU C1QL1 (11718748_at) / Fold change /veh C1QL1 (11718748_at) / RFU TMPRSS4 (11747572_a_at) / Fold change /veh TMPRSS4 (11747572_a_at) / RFU HAMP (11756126_x_at) / Fold change /veh HAMP (11756126_x_at) / RFU RNFT2 (11725882_a_at) / Fold change /veh RNFT2 (11725882_a_at) / RFU NR4A2 (11747474_a_at) / Fold change /veh NR4A2 (11747474_a_at) / RFU ABCC12 (11746883_a_at) / Fold change /veh ABCC12 (11746883_a_at) / RFU TMEM136 (11760407_x_at) / Fold change /veh TMEM136 (11760407_x_at) / RFU CLDN22 /// WWC2 (11732394_at) / Fold change /veh CLDN22 /// WWC2 (11732394_at) / RFU HLA-DPB1 (11760878_x_at) / Fold change /veh HLA-DPB1 (11760878_x_at) / RFU SPINT1 (11716480_a_at) / Fold change /veh SPINT1 (11716480_a_at) / RFU GAP43 (11754022_s_at) / Fold change /veh GAP43 (11754022_s_at) / RFU A4GNT (11735810_at) / Fold change /veh A4GNT (11735810_at) / RFU PRB3 (11715151_x_at) / Fold change /veh PRB3 (11715151_x_at) / RFU TUBB4B (11761932_at) / Fold change /veh TUBB4B (11761932_at) / RFU CAPN14 (11732068_a_at) / Fold change /veh CAPN14 (11732068_a_at) / RFU TMCC2 (11721928_a_at) / Fold change /veh TMCC2 (11721928_a_at) / RFU IRGQ (11745062_a_at) / Fold change /veh IRGQ (11745062_a_at) / RFU FAM174B (11720279_a_at) / Fold change /veh FAM174B (11720279_a_at) / RFU TMPRSS4 (11748680_a_at) / Fold change /veh TMPRSS4 (11748680_a_at) / RFU FAM212B (11763350_a_at) / Fold change /veh FAM212B (11763350_a_at) / RFU PLEKHG5 (11743358_a_at) / Fold change /veh PLEKHG5 (11743358_a_at) / RFU ZSCAN30 (11745921_a_at) / Fold change /veh ZSCAN30 (11745921_a_at) / RFU CMKLR1 (11741424_a_at) / Fold change /veh CMKLR1 (11741424_a_at) / RFU LOC101060620 /// MAPK8IP1 (11723275_at) / Fold change /veh LOC101060620 /// MAPK8IP1 (11723275_at) / RFU SPTSSB (11747773_x_at) / Fold change /veh SPTSSB (11747773_x_at) / RFU PRSS12 (11739890_at) / Fold change /veh PRSS12 (11739890_at) / RFU BIN1 (11741810_x_at) / Fold change /veh BIN1 (11741810_x_at) / RFU WNT11 (11732464_a_at) / Fold change /veh WNT11 (11732464_a_at) / RFU C10orf10 (11716521_a_at) / Fold change /veh C10orf10 (11716521_a_at) / RFU C5orf56 (11738089_at) / Fold change /veh C5orf56 (11738089_at) / RFU CYB561 (11721691_x_at) / Fold change /veh CYB561 (11721691_x_at) / RFU ANKRD19P (11752326_a_at) / Fold change /veh ANKRD19P (11752326_a_at) / RFU OR2T12 /// OR2T33 /// OR2T8 (11738714_s_at) / Fold change /veh OR2T12 /// OR2T33 /// OR2T8 (11738714_s_at) / RFU VCAN (11748164_a_at) / Fold change /veh VCAN (11748164_a_at) / RFU JSRP1 (11732532_at) / Fold change /veh JSRP1 (11732532_at) / RFU KRTAP10-11 (11738290_x_at) / Fold change /veh KRTAP10-11 (11738290_x_at) / RFU MYO3A (11730013_a_at) / Fold change /veh MYO3A (11730013_a_at) / RFU EBF3 (11725865_a_at) / Fold change /veh EBF3 (11725865_a_at) / RFU CAMK2N1 (11719241_x_at) / Fold change /veh CAMK2N1 (11719241_x_at) / RFU C5orf56 (11738088_a_at) / Fold change /veh C5orf56 (11738088_a_at) / RFU OLFML3 (11715873_a_at) / Fold change /veh OLFML3 (11715873_a_at) / RFU LOC100653217 /// NTM (11731650_a_at) / Fold change /veh LOC100653217 /// NTM (11731650_a_at) / RFU MAPK11 (11762145_a_at) / Fold change /veh MAPK11 (11762145_a_at) / RFU FIZ1 (11724087_x_at) / Fold change /veh FIZ1 (11724087_x_at) / RFU OASL (11726364_x_at) / Fold change /veh OASL (11726364_x_at) / RFU SOX15 (11748057_x_at) / Fold change /veh SOX15 (11748057_x_at) / RFU CD79A (11719716_a_at) / Fold change /veh CD79A (11719716_a_at) / RFU HIST1H1D (11736915_at) / Fold change /veh HIST1H1D (11736915_at) / RFU CASKIN2 (11723855_a_at) / Fold change /veh CASKIN2 (11723855_a_at) / RFU LOC730098 (11760151_x_at) / Fold change /veh LOC730098 (11760151_x_at) / RFU OR4N2 (11742367_at) / Fold change /veh OR4N2 (11742367_at) / RFU PRRT2 (11749266_a_at) / Fold change /veh PRRT2 (11749266_a_at) / RFU SNX32 (11753110_a_at) / Fold change /veh SNX32 (11753110_a_at) / RFU CDHR5 (11726645_a_at) / Fold change /veh CDHR5 (11726645_a_at) / RFU RCAN1 (11760418_a_at) / Fold change /veh RCAN1 (11760418_a_at) / RFU FAM167A (11723789_a_at) / Fold change /veh FAM167A (11723789_a_at) / RFU FAM26E (11764081_at) / Fold change /veh FAM26E (11764081_at) / RFU ISYNA1 (11749810_s_at) / Fold change /veh ISYNA1 (11749810_s_at) / RFU ACY1 (11761880_at) / Fold change /veh ACY1 (11761880_at) / RFU 11764098_at / Fold change /veh 11764098_at / RFU SAMD14 (11745864_x_at) / Fold change /veh SAMD14 (11745864_x_at) / RFU NPB (11741838_a_at) / Fold change /veh NPB (11741838_a_at) / RFU TMPRSS6 (11731388_a_at) / Fold change /veh TMPRSS6 (11731388_a_at) / RFU KRTAP10-2 (11738614_at) / Fold change /veh KRTAP10-2 (11738614_at) / RFU ARHGAP8 /// PRR5-ARHGAP8 (11727945_x_at) / Fold change /veh ARHGAP8 /// PRR5-ARHGAP8 (11727945_x_at) / RFU KRTAP5-7 /// NADSYN1 (11734609_at) / Fold change /veh KRTAP5-7 /// NADSYN1 (11734609_at) / RFU RASL12 (11751679_a_at) / Fold change /veh RASL12 (11751679_a_at) / RFU CDKN2B (11736163_a_at) / Fold change /veh CDKN2B (11736163_a_at) / RFU PRF1 (11729649_at) / Fold change /veh PRF1 (11729649_at) / RFU, ZNF638 /// ZNF638-IT1 / Fold change vs veh, ZNF638 /// ZNF638-IT1 / RFU, PANK3 / Fold change vs veh, PANK3 / RFU, SH3YL1 / Fold change vs veh, SH3YL1 / RFU, ZEB2 / Fold change vs veh, ZEB2 / RFU, NRIP1 / Fold change vs veh, NRIP1 / RFU, PTTG1IP / Fold change vs veh, PTTG1IP / RFU, CAPN2 / Fold change vs veh, CAPN2 / RFU, MED14 / Fold change vs veh, MED14 / RFU, SNORA58 / Fold change vs veh, SNORA58 / RFU, C1orf63 / Fold change vs veh, C1orf63 / RFU, LRRFIP1 / Fold change vs veh, LRRFIP1 / RFU, NDUFAF7 / Fold change vs veh, NDUFAF7 / RFU, SLC12A2 / Fold change vs veh, SLC12A2 / RFU, IBTK / Fold change vs veh, IBTK / RFU, ESF1 / Fold change vs veh, ESF1 / Fold change vs veh, TMEM50B / RFU, TAOK1 / Fold change vs veh, TAOK1 / RFU, ACBD3 / Fold change vs veh, ACBD3 / RFU, TMA16 / Fold change vs veh, TMA16 / RFU, RWDD3 / Fold change vs veh, RWDD3 / RFU, BCAT1 / Fold change vs veh, BCAT1 / RFU, EDEM3 / Fold change vs veh, EDEM3 / RFU, TMEM33 / Fold change vs veh, TMEM33 / RFU, WDR75 / Fold change vs veh, WDR75 / RFU, AHCTF1 / Fold change vs veh, AHCTF1 / RFU, TFRC / Fold change vs veh, TFRC / RFU, ZDHHC17 / Fold change vs veh, ZDHHC17 / RFU, NOM1 / Fold change vs veh, NOM1 / RFU, ARL8B / Fold change vs veh, ARL8B / RFU, ZBTB11 / Fold change vs veh, ZBTB11 / RFU, TAMM41 / Fold change vs veh, TAMM41 / RFU, KIAA1704 /// LOC100996395 / Fold change vs veh, KIAA1704 /// LOC100996395 / RFU, ING1 / Fold change vs veh, ING1 / RFU, TRMT61B / Fold change vs veh, TRMT61B / RFU, FUBP3 / Fold change vs veh, FUBP3 / RFU, TP53 / Fold change vs veh, TP53 / RFU, TNKS2 / Fold change vs veh, TNKS2 / RFU, ZFP14 / Fold change vs veh, ZFP14 / RFU, ACTR2 / Fold change vs veh, ACTR2 / RFU, PPP3R1 / Fold change vs veh, PPP3R1 / RFU, PIK3R1 / Fold change vs veh, PIK3R1 / RFU, HNRNPA1 / Fold change vs veh, HNRNPA1 / RFU, RNF170 / Fold change vs veh, RNF170 / RFU, ZNF28 / Fold change vs veh, ZNF28 / RFU, RNGTT / Fold change vs veh, RNGTT / RFU, OGT / Fold change vs veh, OGT / RFU, BRD1 / Fold change vs veh, BRD1 / RFU, MARS / Fold change vs veh, MARS / RFU, ZNF655 / Fold change vs veh, ZNF655 / RFU, FAHD1 / Fold change vs veh, FAHD1 / RFU, BDP1 / Fold change vs veh, BDP1 / RFU, LRRCC1 / Fold change vs veh, LRRCC1 / RFU, ARID1A / Fold change vs veh, ARID1A / RFU, ZNF146 / Fold change vs veh, ZNF146 / RFU, ZNF330 / Fold change vs veh, ZNF330 / RFU, GPN3 / Fold change vs veh, GPN3 / RFU, C9orf123 / Fold change vs veh, C9orf123 / RFU, N4BP2L2 / Fold change vs veh, N4BP2L2 / RFU, ARFIP1 / Fold change vs veh, ARFIP1 / RFU, FAM179B / Fold change vs veh, FAM179B / RFU, BCL10 / Fold change vs veh, BCL10 / RFU, UHRF1BP1L / Fold change vs veh, UHRF1BP1L / RFU, BET1 / Fold change vs veh, BET1 / RFU, CNOT2 / Fold change vs veh, CNOT2 / RFU, ZNF268 / Fold change vs veh, ZNF268 / Fold change vs veh, ZNF507 / RFU, DGCR2 / Fold change vs veh, DGCR2 / RFU, WDSUB1 / Fold change vs veh, WDSUB1 / Fold change vs veh, HSP90B1 /// MIR3652 / RFU, ADSS / Fold change vs veh, ADSS / RFU, GK / Fold change vs veh, GK / RFU, ZNF148 / Fold change vs veh, ZNF148 / RFU, TAF9 / Fold change vs veh, TAF9 / RFU, SLC1A5 / Fold change vs veh, SLC1A5 / RFU, SLMO2 / Fold change vs veh, SLMO2 / RFU, ABCC4 / Fold change vs veh, ABCC4 / RFU, LOC101060439 /// RAP1B / Fold change vs veh, LOC101060439 /// RAP1B / RFU, RFX7 / Fold change vs veh, RFX7 / RFU, GTPBP10 / Fold change vs veh, GTPBP10 / RFU, CNEP1R1 / Fold change vs veh, CNEP1R1 / RFU, BIVM-ERCC5 /// ERCC5 / Fold change vs veh, BIVM-ERCC5 /// ERCC5 / RFU, ILF3 / Fold change vs veh, ILF3 / RFU 11762660_at / Fold change /veh 11762660_at / RFU VCAN (11757783_s_at) / Fold change /veh VCAN (11757783_s_at) / RFU DDX43 (11728927_at) / Fold change /veh DDX43 (11728927_at) / RFU KRT8 (11758188_x_at) / Fold change /veh KRT8 (11758188_x_at) / RFU NKD1 (11759106_at) / Fold change /veh NKD1 (11759106_at) / RFU SRD5A1 (11742802_a_at) / Fold change /veh SRD5A1 (11742802_a_at) / RFU TPSAB1 /// TPSB2 (11721975_s_at) / Fold change /veh TPSAB1 /// TPSB2 (11721975_s_at) / RFU GSTM3 (11746129_a_at) / Fold change /veh GSTM3 (11746129_a_at) / RFU IL23R (11737362_x_at) / Fold change /veh IL23R (11737362_x_at) / RFU TMEM51 (11727254_a_at) / Fold change /veh TMEM51 (11727254_a_at) / RFU PIWIL2 (11732686_x_at) / Fold change /veh PIWIL2 (11732686_x_at) / RFU ORM1 (11744905_x_at) / Fold change /veh ORM1 (11744905_x_at) / RFU CCDC152 (11743942_at) / Fold change /veh CCDC152 (11743942_at) / RFU ECM1 (11717891_a_at) / Fold change /veh ECM1 (11717891_a_at) / RFU IL23R (11748794_a_at) / Fold change /veh IL23R (11748794_a_at) / RFU TNFAIP8L3 (11732012_x_at) / Fold change /veh TNFAIP8L3 (11732012_x_at) / RFU MBOAT4 (11741988_at) / Fold change /veh MBOAT4 (11741988_at) / RFU 11764193_at / Fold change /veh 11764193_at / RFU TMEM53 (11763286_at) / Fold change /veh TMEM53 (11763286_at) / RFU MAGEB2 (11727129_at) / Fold change /veh MAGEB2 (11727129_at) / RFU TMEM200A (11744735_a_at) / Fold change /veh TMEM200A (11744735_a_at) / RFU CCDC152 (11751479_a_at) / Fold change /veh CCDC152 (11751479_a_at) / RFU FAM211A (11726209_a_at) / Fold change /veh FAM211A (11726209_a_at) / RFU RGS16 (11746705_a_at) / Fold change /veh RGS16 (11746705_a_at) / RFU VCAN (11755009_s_at) / Fold change /veh VCAN (11755009_s_at) / RFU RHOB (11743442_s_at) / Fold change /veh RHOB (11743442_s_at) / RFU RGS16 (11720943_a_at) / Fold change /veh RGS16 (11720943_a_at) / RFU RGS16 (11720944_at) / Fold change /veh RGS16 (11720944_at) / RFU, VPS4B / Fold change vs veh, VPS4B / RFU, CREB1 / Fold change vs veh, CREB1 / RFU, DNAJC13 / Fold change vs veh, DNAJC13 / RFU, GNAQ / Fold change vs veh, GNAQ / RFU, CDK5R1 / Fold change vs veh, CDK5R1 / RFU, ZRANB3 / Fold change vs veh, ZRANB3 / RFU, CUL4A / Fold change vs veh, CUL4A / RFU, CCNY / Fold change vs veh, CCNY / RFU, UFL1 / Fold change vs veh, UFL1 / RFU, COG3 / Fold change vs veh, COG3 / RFU, DIAPH2 / Fold change vs veh, DIAPH2 / RFU, SKA2 / Fold change vs veh, SKA2 / RFU, AFF3 / Fold change vs veh, AFF3 / RFU, LMF1 / Fold change vs veh, LMF1 / RFU, IPO11 / Fold change vs veh, IPO11 / RFU, DFFB / Fold change vs veh, DFFB / RFU, FOXP1 / Fold change vs veh, FOXP1 / RFU, CARD8 / Fold change vs veh, CARD8 / RFU, STRN3 / Fold change vs veh, STRN3 / RFU, ADK / Fold change vs veh, ADK / RFU, RASSF2 / Fold change vs veh, RASSF2 / RFU, WIPF1 / Fold change vs veh, WIPF1 / RFU, LARP1B / Fold change vs veh, LARP1B / RFU, RASA1 / Fold change vs veh, RASA1 / RFU, RB1 / Fold change vs veh, RB1 / RFU, PPFIA1 / Fold change vs veh, PPFIA1 / RFU, MAT2A / Fold change vs veh, MAT2A / RFU, CCT5 / Fold change vs veh, CCT5 / RFU, WDR92 / Fold change vs veh, WDR92 / RFU, CUX1 / Fold change vs veh, CUX1 / RFU, TTC7A / Fold change vs veh, TTC7A / RFU, TMEM135 / Fold change vs veh, TMEM135 / RFU, DEPTOR / Fold change vs veh, DEPTOR / RFU, CPM / Fold change vs veh, CPM / RFU, DNAJB6 / Fold change vs veh, DNAJB6 / RFU, CACNA2D3 / Fold change vs veh, CACNA2D3 / RFU, DTX4 / Fold change vs veh, DTX4 / RFU, TFCP2 / Fold change vs veh, TFCP2 / RFU, GMCL1 /// GMCL1P1 / Fold change vs veh, GMCL1 /// GMCL1P1 / RFU, AEBP2 / Fold change vs veh, AEBP2 / RFU, SNHG1 /// SNORD22 /// SNORD25 /// SNORD26 /// SNORD27 /// SNORD28 /// SNORD29 /// SNORD31 / Fold change vs veh, SNHG1 /// SNORD22 /// SNORD25 /// SNORD26 /// SNORD27 /// SNORD28 /// SNORD29 /// SNORD31 / Fold change (Aza/veh), C12orf56 (ProbeSet 11735607_a_at) / Fold change (ACY-1035/veh), C12orf56 (ProbeSet 11735607_a_at) / Fold change (Aza/veh), FGFR1OP (ProbeSet 11751329_s_at) / Fold change (ACY-1035/veh), FGFR1OP (ProbeSet 11751329_s_at) / Fold change (Aza/veh), VPS36 (ProbeSet 11739960_a_at) / Fold change (ACY-1035/veh), VPS36 (ProbeSet 11739960_a_at) / RFU SYPL1 (11715823_x_at) / Fold change /veh SYPL1 (11715823_x_at) / RFU IGFBP7 (11715501_s_at) / Fold change /veh IGFBP7 (11715501_s_at) / RFU REEP3 (11722064_at) / Fold change /veh REEP3 (11722064_at) / RFU IGLL1 (11728026_x_at) / Fold change /veh IGLL1 (11728026_x_at): dose or concentration left out as unconfirmed. The conditions noted are these: ProbeSet 11732154_at; LIST B.

SMILES strings stand for the structures.

Experimental findings from article PMC5218480 (PLoS ONE, 2017) are described below.

Take `Nc1ccc(-c2cccs2)cc1NC(=O)c1ccc2c(c1)cc(C1CC1)n2CCN1CCOCC1` [ACY-1035]: the “Fold change vs veh, OGT” value is on record as 1.05.
